Laboratory results: US6492365B1, “Microsomal triglyceride transfer protein” (Bristol-Myers Squibb Company, priority 1992, dated 2002)
Structures can show the parent of a compound that is named as a salt.

Molecular target: T1, bovine MTP (Bos taurus, UniProt P55156)
T1 construct: with about 50-200 ng purified MTP in the well of a 96-well plate; from tissue; host or cells: bovine liver
T1 sequence (P55156 12-887): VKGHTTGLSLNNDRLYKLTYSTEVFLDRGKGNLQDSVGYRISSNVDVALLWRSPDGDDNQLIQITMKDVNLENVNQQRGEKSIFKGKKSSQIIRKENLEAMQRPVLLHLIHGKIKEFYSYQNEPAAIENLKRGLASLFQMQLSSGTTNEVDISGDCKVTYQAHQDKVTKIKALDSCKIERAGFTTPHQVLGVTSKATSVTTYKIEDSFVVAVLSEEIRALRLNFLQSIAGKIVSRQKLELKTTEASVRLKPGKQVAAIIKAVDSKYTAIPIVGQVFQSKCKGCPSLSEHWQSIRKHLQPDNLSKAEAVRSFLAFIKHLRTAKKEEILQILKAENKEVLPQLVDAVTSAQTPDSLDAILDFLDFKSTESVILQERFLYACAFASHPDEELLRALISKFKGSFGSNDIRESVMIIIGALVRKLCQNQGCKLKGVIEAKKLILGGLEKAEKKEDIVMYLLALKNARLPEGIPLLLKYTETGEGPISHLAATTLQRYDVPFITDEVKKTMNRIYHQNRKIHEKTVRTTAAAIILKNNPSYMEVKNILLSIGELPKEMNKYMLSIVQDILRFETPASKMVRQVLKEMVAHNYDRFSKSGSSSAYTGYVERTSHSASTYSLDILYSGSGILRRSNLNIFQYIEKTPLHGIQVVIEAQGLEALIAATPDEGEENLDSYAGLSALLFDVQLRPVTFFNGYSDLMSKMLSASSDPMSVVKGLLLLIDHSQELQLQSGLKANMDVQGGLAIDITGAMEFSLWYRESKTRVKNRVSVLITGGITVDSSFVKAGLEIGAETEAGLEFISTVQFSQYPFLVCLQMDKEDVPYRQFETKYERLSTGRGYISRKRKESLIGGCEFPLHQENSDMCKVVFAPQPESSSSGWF
T1 sequence (P05307 21-510 partner): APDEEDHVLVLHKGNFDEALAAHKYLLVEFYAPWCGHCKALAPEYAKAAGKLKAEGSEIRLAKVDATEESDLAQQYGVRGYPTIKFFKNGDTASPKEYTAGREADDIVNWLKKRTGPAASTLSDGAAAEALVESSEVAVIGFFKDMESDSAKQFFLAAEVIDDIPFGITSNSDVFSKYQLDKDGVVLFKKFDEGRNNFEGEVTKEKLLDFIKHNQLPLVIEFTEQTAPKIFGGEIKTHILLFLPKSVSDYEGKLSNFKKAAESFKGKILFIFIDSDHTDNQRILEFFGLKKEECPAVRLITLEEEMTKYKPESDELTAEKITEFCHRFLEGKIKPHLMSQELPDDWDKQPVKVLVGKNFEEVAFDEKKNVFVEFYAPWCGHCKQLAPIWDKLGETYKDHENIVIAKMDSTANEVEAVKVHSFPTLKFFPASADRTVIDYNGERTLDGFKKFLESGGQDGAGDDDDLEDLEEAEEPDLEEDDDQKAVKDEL
Assay: MTP-catalyzed transport of 14C-PC from donor SUV to acceptor SUV
Type: biochemical
Conditions: at concentrations of inhibitor which decreased TG and CE transfer more than 80%
Method: To measure the effect of compound A on bovine MTP-catalyzed transport of CE or PC between membranes, the lipid transfer assay which measures TG transfer between SUV was modified. The composition of the donor vesicles was the same, except 0.25 mol% ^14C-CE or ^14C-PC replaced the labeled TG. The composition of the acceptor vesicles were the same, except labeled PC and unlabeled TG were not included. Following precipitation of donor vesicles, the percentage of lipid transfer was calculated by comparing the ^14C-CE or -PC in the acceptor vesicles in the supernatant following a transfer reaction to the total ^14C-CE or -PC in the assay. The labeled lipid in the supernatant in the absence of MTP was subtracted from the labeled lipid in the presence MTP to calculate the MTP-catalyzed lipid transfer from donor SUV to acceptor SUV. The remainder of the assay was essentially as described previously.

- PC transfer inhibited: Approximately 40%
Compound: O=C1c2ccccc2CN1C1CCN(CCC(c2ccccc2)c2ccccc2)CC1 [compound A, 2-[1-(3,3-diphenylpropyl)-4-piperdinyl]-2,3-dihydro-3-oxo-1H-isoindole hydrochloride]
